Data: patent US20230278972A1, “SUBSTITUTED HALOALKYL SULFONANILIDE HERBICIDES” (FMC Corporation, priority 2020, published 2023)

What was measured:
Assay type in all cases: in vivo
[1] = system: Ryegrass, Italian (Italian ryegrass, Lolium multiflorum); experiment: Test A postemergence, Ryegrass, Italian; conditions: Postemergence
Method in brief: (§1)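 Postemergence ratings come from foliar sprays onto one- to two-leaf plants of 2 to 10 cm grown in loam/sand; preemergence ratings come from a directed spray onto the soil of newly seeded pots. Formulation was a surfactant-containing non-phytotoxic solvent blend.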

[2] = system: Foxtail, Giant (giant foxtail, Setaria faberi); experiment: Test A preemergence, Foxtail, Giant; conditions: Preemergence; for Plant response rating, Foxtail, Giant: 0 to 100 scale (0 no effect, 100 complete control); for Foxtail, Giant plant response rating: 125 g ai/ha, visual injury on 0 to 100 scale (0 no effect, 100 complete control), approximately 10 days
Method in brief: as §1

[3] = system: blackgrass (Alopecurus myosuroides); experiment: Test A postemergence, blackgrass; conditions: Postemergence, 0 to 100 scale (0 no effect, 100 complete control)
Method in brief: as §1

[4] = system: barnyardgrass (Echinochloa crus-galli); experiment: Test A postemergence, barnyardgrass; conditions: Postemergence, 0 to 100 scale (0 no effect, 100 complete control)
Method in brief: (§2)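 Test chemicals, formulated in a non-phytotoxic solvent mixture with surfactant, were sprayed postemergence on plants 2 to 10 cm tall at the one- to two-leaf stage. Preemergence treatment was a directed soil spray onto freshly seeded pots. Both used a loam soil and sand blend.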

corn (Zea mays) = experiment: Test A postemergence, corn; conditions: Postemergence
Method in brief: as §1

[5] = system: Ryegrass, Italian (Italian ryegrass, Lolium multiflorum); experiment: Test A preemergence, Ryegrass, Italian; conditions: Preemergence; for Plant response rating, Ryegrass, Italian: 0 to 100 scale (0 no effect, 100 complete control); for Ryegrass, Italian plant response rating: 125 g ai/ha, visual injury on 0 to 100 scale (0 no effect, 100 complete control), approximately 10 days
Method in brief: as §1

[6] = system: pigweed (Amaranthus retroflexus); experiment: Test A postemergence, pigweed; conditions: Postemergence
Method in brief: as §1

[7] = system: barnyardgrass (Echinochloa crus-galli); experiment: Test A preemergence, barnyardgrass; conditions: Preemergence; for Plant response rating, Barnyardgrass: 0 to 100 scale (0 no effect, 100 complete control); for Barnyardgrass plant response rating: 125 g ai/ha, visual injury on 0 to 100 scale (0 no effect, 100 complete control), approximately 10 days
Method in brief: as §1

kochia (Bassia scoparia) [8] = experiment: Test A postemergence, kochia; conditions: Postemergence
Method in brief: as §1

[9] = system: galium (catchweed bedstraw, Galium aparine); experiment: Test A postemergence, galium; conditions: Postemergence
Method in brief: as §2

[10] = system: wheat (Triticum aestivum); experiment: Test A postemergence, wheat; conditions: Postemergence
Method in brief: as §2

[11] = system: Foxtail, Giant (giant foxtail, Setaria faberi); experiment: Test A postemergence, Foxtail, Giant; conditions: Postemergence
Method in brief: as §1

[12] = system: ragweed (common ragweed, Ambrosia artemisiifolia); experiment: Test A preemergence, ragweed; conditions: Preemergence; for Plant response rating, Ragweed: 0 to 100 scale (0 no effect, 100 complete control); for Ragweed plant response rating: 125 g ai/ha, visual injury on 0 to 100 scale (0 no effect, 100 complete control), approximately 10 days
Method in brief: as §1

kochia (Bassia scoparia) [13] = experiment: Test A preemergence, kochia; conditions: Preemergence; for Plant response rating, Kochia: 0 to 100 scale (0 no effect, 100 complete control); for Kochia plant response rating: 125 g ai/ha, visual injury on 0 to 100 scale (0 no effect, 100 complete control), approximately 10 days
Method in brief: as §1

[14] = system: ragweed (common ragweed, Ambrosia artemisiifolia); experiment: Test A postemergence, ragweed; conditions: Postemergence
Method in brief: as §1

[15] = system: pigweed (Amaranthus retroflexus); experiment: Test A preemergence, pigweed; conditions: for Plant response rating, Pigweed: 0 to 100 scale (0 no effect, 100 complete control); for Pigweed plant response rating: 125 g ai/ha, visual injury on 0 to 100 scale (0 no effect, 100 complete control), approximately 10 days
Method in brief: as §2

[16] = 31 g ai/ha, visual injury on 0 to 100 scale (0 no effect, 100 complete control), approx. 10 days
[17] = 125 g ai/ha, 0 to 100 scale (0 no effect, 100 complete control)
[18] = 31 g ai/ha, visual injury, approx. 10 days
[19] = 125 g ai/ha, visual injury approx. 10 days
[20] = 125 g ai/ha, visual injury approx. 10 days, 0 to 100 scale (0 no effect, 100 complete control)
[21] = 500 g ai/ha, visual injury vs untreated controls after approx. 10 days, 0 to 100 scale (0 no effect, 100 complete control)
[22] = 500 g ai/ha, visual injury vs untreated controls after approx. 10 days

Structure (SMILES) | Plant response rating, Ryegrass, Italian [1, 16] | Plant response rating, Ryegrass, Italian [1, 17] | Plant response rating, Foxtail, Giant [2, 18] | Foxtail, Giant plant response rating [2] | Plant response rating, Blackgrass ([3]; 31 g ai/ha) | Plant response rating, Blackgrass [3, 19] | Plant response rating, Barnyardgrass ([4]; 31 g ai/ha) | Plant response rating, Barnyardgrass [4, 19] | Plant response rating, Corn (corn (Zea mays); [16]) | Plant response rating, Corn (corn (Zea mays); [20]) | Plant response rating, Ryegrass, Italian [5, 18] | Ryegrass, Italian plant response rating [5] | Plant response rating, Pigweed [6, 16] | Plant response rating, Pigweed [6, 17] | Barnyardgrass plant response rating [7] | Plant response rating, Wheat [10, 17] | Ragweed plant response rating [12] | Kochia plant response rating (kochia (Bassia scoparia) [13]) | Plant response rating, Ragweed [14, 17] | Pigweed plant response rating [15] | other results
COC1CCCN(C(=O)c2cc(NS(=O)(=O)C(F)(F)F)c(C)cc2C)CC1 (stereo not shown) [Compound 137] | 0 | 0 | 50 | 100 | 0 | 0 | 10 | 30 | 30 | 30 | 60 | 100 | 50 | 30 | 100 | 0 | 60 | 30 | 10 | 100 | Plant response rating, Barnyardgrass [7, 18]: 20; Plant response rating, Kochia (kochia (Bassia scoparia) [8]; [16]): 0; Plant response rating, Kochia (kochia (Bassia scoparia) [8]; [20]): 20; Plant response rating, Galium [9, 16]: 30; Plant response rating, Galium [9, 20]: 80; Plant response rating, Wheat [10, 16]: 0; Plant response rating, Foxtail, Giant [11, 16]: 0; Plant response rating, Foxtail, Giant [11, 20]: 0; Plant response rating, Ragweed [12, 18]: 20; Plant response rating, Kochia (kochia (Bassia scoparia) [13]; [18]): 30; Plant response rating, Ragweed [14, 16]: 0; Plant response rating, Pigweed [15, 18]: 80
Cc1cc(C)c(N(S(=O)(=O)C(F)(F)F)S(=O)(=O)C(F)(F)F)cc1C1=NOC2(CCC(C)(C)CC2)C1 [Compound 139] | – | 0 | – | 0 | – | 0 | – | 0 | – | 0 | – | 50 | – | 40 | 0 | 0 | 0 | 0 | 0 | 20 | Ryegrass, Italian plant response rating [1, 21]: 0; Plant response rating, Foxtail, Giant ([2]; 500 g ai/ha): 20; Blackgrass plant response rating [3, 22]: 0; Barnyardgrass plant response rating [4, 22]: 0; Corn plant response rating (corn (Zea mays); [21]): 0; Plant response rating, Ryegrass, Italian ([5]; 500 g ai/ha): 70; Pigweed plant response rating [6, 21]: 80; Plant response rating, Barnyardgrass ([7]; 500 g ai/ha): 30; Plant response rating, Kochia (kochia (Bassia scoparia) [8]; [20]): 0; Kochia plant response rating (kochia (Bassia scoparia) [8]; [21]): 50; Plant response rating, Galium [9, 20]: 50; Galium plant response rating [9, 21]: 80; Wheat plant response rating [10, 21]: 0; Plant response rating, Foxtail, Giant [11, 20]: 0; Foxtail, Giant plant response rating [11, 21]: 0; Plant response rating, Ragweed ([12]; 500 g ai/ha): 30; Plant response rating, Kochia (kochia (Bassia scoparia) [13]; 500 g ai/ha): 60; Ragweed plant response rating [14, 21]: 0; Plant response rating, Pigweed ([15]; 500 g ai/ha): 70
CCCCC(=O)OCN(c1cc(C2=NOC3(CCCC3)C2)c(C)cc1C)S(=O)(=O)C(F)(F)F [Compound 143] | 0 | 20 | 50 | 100 | 60 | 0 | 0 | 50 | 0 | 20 | 90 | 90 | 20 | 40 | 90 | 50 | 0 | 20 | 10 | 100 | Plant response rating, Barnyardgrass [7, 18]: 80; Plant response rating, Kochia (kochia (Bassia scoparia) [8]; [16]): 10; Plant response rating, Kochia (kochia (Bassia scoparia) [8]; [20]): 20; Plant response rating, Galium [9, 16]: 50; Plant response rating, Galium [9, 20]: 40; Plant response rating, Wheat [10, 16]: 20; Plant response rating, Foxtail, Giant [11, 16]: 0; Plant response rating, Foxtail, Giant [11, 20]: 30; Plant response rating, Ragweed [12, 18]: 0; Plant response rating, Kochia (kochia (Bassia scoparia) [13]; [18]): 0; Plant response rating, Ragweed [14, 16]: 0; Plant response rating, Pigweed [15, 18]: 60
CCC(=O)OCN(c1cc(C2=NOC3(CCCC3)C2)c(C)cc1C)S(=O)(=O)C(F)(F)F [Compound 144] | 0 | 0 | 90 | 100 | 0 | 0 | 0 | 20 | 0 | 30 | 70 | 90 | 20 | 40 | 100 | 60 | 30 | 30 | 30 | 50 | Plant response rating, Barnyardgrass [7, 18]: 20; Plant response rating, Kochia (kochia (Bassia scoparia) [8]; [16]): 10; Plant response rating, Kochia (kochia (Bassia scoparia) [8]; [20]): 10; Plant response rating, Galium [9, 16]: 30; Plant response rating, Galium [9, 20]: 60; Plant response rating, Wheat [10, 16]: 0; Plant response rating, Foxtail, Giant [11, 16]: 0; Plant response rating, Foxtail, Giant [11, 20]: 30; Plant response rating, Ragweed [12, 18]: 0; Plant response rating, Kochia (kochia (Bassia scoparia) [13]; [18]): 0; Plant response rating, Ragweed [14, 16]: 0; Plant response rating, Pigweed [15, 18]: 70
Cc1cc(C)c(N(COC(=O)C2CCCCC2)S(=O)(=O)C(F)(F)F)cc1C1=NOC2(CCCC2)C1 [Compound 148] | 0 | 0 | 40 | 100 | 0 | – | 0 | – | 0 | – | 30 | 100 | 40 | 40 | 80 | 0 | 20 | 30 | 0 | 100 | Plant response rating, Blackgrass ([3]; 125 g ai/ha): 0; Plant response rating, Barnyardgrass ([4]; 125 g ai/ha): 10; Plant response rating, Corn (corn (Zea mays); [17]): 0; Plant response rating, Barnyardgrass [7, 18]: 20; Plant response rating, Kochia (kochia (Bassia scoparia) [8]; [16]): 0; Plant response rating, Kochia (kochia (Bassia scoparia) [8]; [17]): 20; Plant response rating, Galium [9, 16]: 0; Plant response rating, Galium [9, 17]: 20; Plant response rating, Wheat [10, 16]: 0; Plant response rating, Foxtail, Giant [11, 16]: 0; Plant response rating, Foxtail, Giant [11, 17]: 0; Plant response rating, Ragweed [12, 18]: 0; Plant response rating, Kochia (kochia (Bassia scoparia) [13]; [18]): 20; Plant response rating, Ragweed [14, 16]: 0; Plant response rating, Pigweed [15, 18]: 30
